Test results as given in patent US20230271142A1, “METHODS OF PREPARING SOLID PARTICULATE MATERIALS” (MICROPORE TECHNOLOGIES LIMITED, priority 2020, published 2023).
Where “and” joins values, the source holds several entries; their conditions need not be identical. Identical values can stand only once. Each block holds one compound with its values, some of them ahead of it.

Legend:
Type in all cases: physicochemical
[1] = Effect of aqueous phase surfactant on carbamazepine crystals produced via LDC (Jorin ViPA); conditions: for D10 / D50 / D90 / Volume Mean: LDC
Protocol: 0.4 g of Carbamazepine was dissolved in 10 ml methanol in a beaker at 45° C. to make up the organic phase. In one instance, 0.5% Pluronic PEG P123 (Mn˜5,800) in DI water was used as the aqueous phase. In another instance, 0.5% HPMC (Mn˜10,000) in DI water was used as the aqueous phase.
The LDC was configured with a membrane with 10 μm pores, spaced 200 μm apart in a ring formation. The stirrer speed was set at 14V (1750 rpm), and the organic phase injection rate set at 10 ml/min. The line was primed with organic phase and the aqueous was poured into the stirred cell. The organic phase addition was started and ended when 3 ml of DP was injected.
The solution was left to stir until precipitation was visible. The crystals were analyzed via microscopy and Jorin ViPA. The results are relayed in FIG. 18 and Table 7.

[2] = Crystal size distribution of metformin crystals produced via LDC (Jorin ViPA)
Protocol: 0.4 g of Metformin was dissolved in 10 ml methanol in a beaker to make up the organic phase. 0.5% Tween 20 in […] was used as the aqueous phase.
The LDC was configured with a membrane with 10 μm pores, spaced 200 μm apart in a ring-shape. The stirrer speed was set at 14V (1750 rpm), and the injection rate set at 10 ml/min. The line was primed with organic phase and the aqueous phase was poured into the dispersion cell. Addition of the organic phase was started and ended when 3 ml of DP was injected.
The solution was left to stir until precipitation was visible. The crystals were analyzed via microscopy and Jorin ViPA. The results are relayed in FIG. 23 and Table 9.

[3] = Crystal size distribution of paracetamol crystals from CXF by Jorin Visual Particle Size Analyser (ViPA)
Protocol: A solution of paracetamol in ethanol (0.3 g/ml) was prepared, alongside an aqueous phase consisting of 0.5% wt. PEG […] in DI water. The CXF was configured with a membrane with 10 μm pores, spaced 200 μm apart in a square grid. A 9.5 mm insert was used. The materials were pumped using gear pumps. The aqueous continuous phase was pumped through the annulus at the center of the membrane. The organic disperse phase was pumped through the top port of the device calibrated at a rate of […], through the membrane and into the flow of continuous phase at 200 ml/min. The solution was collected in a beaker and stirred with an overhead stirrer at 500 rpm for 10-15 minutes. The experiment was repeated 3 times. The resultant crystal suspension was examined via microscopy (see FIG. 1), and Jorin Visual Particle Size Analyser (ViPA) for crystal size and uniformity, (FIG. 2 and Table 1).

[4] = Crystal size distribution of piroxicam crystals from CXF by laser diffraction (Beckmann Coulter LS-230); conditions: 5 μm pores
Protocol: The CXF was configured with a membrane with 5 μm pores, spaced 45 μm apart in a square grid. A 9.5 mm insert was used. The materials were pumped using gear pumps. The aqueous continuous phase was pumped at […] through the annulus at the center of the membrane. The organic disperse phase was pumped at 17 mL/min through the top port of the device, through the membrane and into the flow of continuous phase. The solution was collected in a 250 ml beaker and stirred with an overhead stirrer at 500 rpm for 10-15 minutes. The crystals were analyzed via microscopy and Laser Diffraction (Beckmann Coulter LS-230). The results are relayed in FIGS. 4 and 5 and Table 2.

[5] = Crystal size distribution of prednisolone crystals from CXF by Jorin ViPA; conditions: 10 μm pores
Protocol: 8 g of Prednisolone was dissolved in 200 ml of ethanol in a beaker at 55° C. to make up the organic phase. 0.5% PVA (Mowiol 23-88) in DI water was used as the aqueous phase.
The CXF was configured with a membrane with 10 μm pores, spaced 200 μm apart in a square grid. A 9.5 mm insert was used. The materials were pumped using gear pumps, calibrated so the aqueous continuous phase flow was […] and the organic disperse phase flow was 28 mL/min.
The aqueous continuous phase was pumped through the annulus at the center of the membrane. The organic disperse phase, held at 55° C., was pumped through the top port of the device, through the membrane pores and into the flow of continuous phase.
The resultant solution was collected in a 500 ml beaker and stirred with an overhead stirrer at 500 rpm for 10-15 minutes. The crystals were analyzed via microscopy and Jorin ViPA. The results are relayed in FIGS. 6 and 7 and Table 3.

[6] = Effect of disperse phase flow rate on size distribution of telmisartan particles (CXF, laser diffraction); conditions: for D10 / D50 / D90 / Volume Mean: CXF, 10 μm pores
Protocol: A solution of telmisartan in DMSO (0.06 g/ml) was prepared as the organic phase. The aqueous phase was composed of distilled water. The CXF was configured with a membrane with 10 μm pores, spaced 200 μm apart in a square grid. A 9.5 mm insert was used. The materials were pumped using gear pumps. The aqueous continuous phase was pumped through the annulus at the center of the membrane at […]. The organic disperse phase was pumped through the top port of the device at rates of […], through the membrane and into the flow of continuous phase that was calibrated. The solution was collected in a beaker and stirred with an overhead stirrer at 500 rpm for 5-10 minutes.

[7] = Effect of membrane pore diameter on size distribution of telmisartan particles (CXF, laser diffraction); conditions: for D10 / D50 / D90 / Volume Mean: CXF, DP 58 mL/min
Protocol: A solution of telmisartan in DMSO (0.06 g/ml) was prepared as the organic phase. The aqueous phase was composed of distilled water. The CXF was configured with membranes of different pore sizes that included 5, 10, 20 and 40 μm pores, spaced 200 μm apart in a square grid. A 9.5 mm insert was used. The materials were pumped using gear pumps. The aqueous continuous phase was pumped through the annulus at the center of the membrane at a rate of 464 ml/min. The organic disperse phase was pumped through the top port of the device at a rate of 58 mL/min, through the membrane pores and into the flow of continuous phase. The solution was collected in a beaker and stirred with an overhead stirrer at 500 rpm for 5-10 minutes.

[8] = Particle size distribution of amorphous telmisartan produced via LDC and CXF (laser diffraction); conditions: three runs; for D10 / D50 / D90 / Volume Mean D[4,3]: 10 μm pores, ± standard deviation; for StDev: of the size distribution
Protocol: Reproducibility of the Production of Amorphous Telmisartan and Translation from Stirred Cell LDC to Continuous Crossflow CXF Devices A solution of telmisartan in DMSO (0.06 g/ml) was prepared for use as the organic phase. An aqueous phase of 50 ml of DI water was prepared. The LDC was configured with a membrane with 10 μm pores, spaced 200 μm apart in a square grid, in a ring sat underneath a stirrer paddle. […] The stirrer was set to […] (1750 rpm). […] The LDC runs were repeated three times. Additionally, a solution of telmisartan in DMSO (0.06 g/ml) was prepared as an organic phase. An aqueous phase was composed of distilled water. A CXF was configured with a membrane with 10 μm pores, spaced 200 μm apart in a square grid. A 9.5 mm insert was used. The materials were pumped using gear pumps. The aqueous continuous phase was pumped through the annulus at the center of the membrane at a rate of 464 ml/min. The organic disperse phase was pumped through the top port of the device at a rate of 58 mL/min, through the membrane pores and into the flow of continuous phase. This preserved the 8:1 CP:DP ratio used in the LDC experiments and generated a similar shear profile. The solution was collected in a beaker and stirred with an overhead stirrer at 500 rpm for 5-10 minutes. The CXF runs were repeated three times. The particle size distributions of material produced on the LDC are shown in Table 6, with errors given as the standard deviations, alongside those for the CXF runs.

[9] = aqueous phase 0.5% HPMC (form III)
[10] = aqueous phase 0.5% P123 (form II)
[11] = 10 μm pores, methanol solution into 0.5% Tween 20 in acetonitrile
[12] = Average ± Standard Deviation of 3 runs
[13] = CXF, 10 μm pores, Average ± Standard Deviation of 3 runs
[14] = volume distribution, CXF, 10 μm pores, ethanol solution into 0.5% PEG P123 water, single runs 1-3
[15] = volume distribution, ethanol solution into 0.5% HPMC water
[16] = volume distribution, ethanol solution 55° C. into 0.5% PVA water
[17] = disperse phase 58 mL/min (average of three)
[18] = 10 μm pore membrane (average of three)

Structure (SMILES): NC(=O)N1c2ccccc2C=Cc2ccccc21 [Carbamazepine]
- Span ([1]; 0.5% HPMC): 1.10
- Span ([1]; 0.5% P123): 0.81
- D10 [1, 9]: 28.90 μm
- D50 [1, 9]: 44.92 μm
- D90 [1, 9]: 78.16 μm
- Volume Mean [1, 9]: 48.84 μm
- D10 [1, 10]: 29.92 μm
- D50 [1, 10]: 42.37 μm
- D90 [1, 10]: 64.09 μm
- Volume Mean [1, 10]: 45.79 μm

Structure (SMILES): CN(C)C(=N)N=C(N)N [Metformin]
- Span [2]: 1.09
- Size Mean ([2]; 10 μm pores): 12.430 μm
- Volume Mean ([2]; 10 μm pores): 53.10 μm
- D10 [2, 11]: 25.63 μm
- D50 [2, 11]: 50.80 μm
- D90 [2, 11]: 81.03 μm

Structure (SMILES): CC(=O)Nc1ccc(O)cc1 [Paracetamol, paracetamol]
- CV % [3, 12]: 39.07 ± 1.660%
- Span [3, 12]: 1.100 ± 0.066
- Volume Mean D[4,3] ([3]; CXF, 10 μm pores, ethanol solution into 0.5% PEG P123 water, single runs 1-3): 45.37 μm and 44.28 μm and 41.17 μm
- D10 [3, 13]: 23.81 ± 0.894 μm
- D50 [3, 13]: 40.42 ± 0.573 μm
- D90 [3, 13]: 68.31 ± 3.604 μm
- Volume Mean D[4,3] [3, 13]: 43.61 ± 1.258 μm
- Span ([3]; CXF, 10 μm pores, single runs 1-3): 1.232 and 1.044 and 1.024
- StDev ([3]; of the size distribution, Average ± Standard Deviation of 3 runs): 17.05 ± 1.021 μm
- D10 [3, 14]: 24.12 μm and 25.18 μm and 22.13 μm
- D50 [3, 14]: 41.15 μm and 40.82 μm and 39.29 μm
- D90 [3, 14]: 74.81 μm and 67.77 μm and 62.36 μm

Structure (SMILES): CCCc1nc2c(C)cc(-c3nc4ccccc4n3C)cc2n1Cc1ccc(-c2ccccc2C(=O)O)cc1 [Telmisartan, telmisartan]
- D10 ([6]; disperse phase 15 mL/min): 4.653 μm
- D50 ([6]; disperse phase 15 mL/min): 10.11 μm
- D90 ([6]; disperse phase 15 mL/min): 15.76 μm
- Volume Mean ([6]; disperse phase 15 mL/min): 10.17 μm
- D10 ([6]; disperse phase 29 mL/min): 4.981 μm
- D50 ([6]; disperse phase 29 mL/min): 10.09 μm
- D90 ([6]; disperse phase 29 mL/min): 18.9 μm
- Volume Mean ([6]; disperse phase 29 mL/min): 11.79 μm
- D10 [6, 17]: 7.359 μm
- D50 [6, 17]: 15.66 μm
- D90 [6, 17]: 28.00 μm
- Volume Mean [6, 17]: 17.11 μm
- Span ([6]; disperse phase 15 mL/min): 1.099
- Span ([6]; disperse phase 29 mL/min): 1.379
- Span [6, 17]: 1.318
- C.V ([7]; 5 μm pore membrane): 53.31%
- C.V [7, 18]: 50.06%
- C.V ([7]; 20 μm pore membrane): 57.77%
- C.V ([7]; 40 μm pore membrane): 56.41%
- D10 ([7]; 5 μm pore membrane): 6.506 μm
- D50 ([7]; 5 μm pore membrane): 13.01 μm
- D90 ([7]; 5 μm pore membrane): 22.83 μm
- Volume Mean ([7]; 5 μm pore membrane): 14.31 μm
- D10 [7, 18]: 7.359 μm
- D50 [7, 18]: 15.66 μm
- D90 [7, 18]: 28.00 μm
- Volume Mean [7, 18]: 17.11 μm
- D10 ([7]; 20 μm pore membrane): 6.555 μm
- D50 ([7]; 20 μm pore membrane): 18.72 μm
- D90 ([7]; 20 μm pore membrane): 37.68 μm
- Volume Mean ([7]; 20 μm pore membrane): 20.60 μm
- D10 ([7]; 40 μm pore membrane): 8.451 μm
- D50 ([7]; 40 μm pore membrane): 23.16 μm
- D90 ([7]; 40 μm pore membrane): 45.99 μm
- Volume Mean ([7]; 40 μm pore membrane): 25.42 μm
- D10 ([8]; CXF): 7.359 ± 1.096 μm
- D50 ([8]; CXF): 15.66 ± 1.558 μm
- D90 ([8]; CXF): 28.0 ± 2.091 μm
- Volume Mean D[4,3] ([8]; CXF): 17.11 ± 1.538 μm
- CV ([8]; CXF): 50.57 ± 3.09%
- Span ([8]; CXF): 1.389 ± 0.070
- D10 ([8]; LDC): 6.952 ± 0.357 μm
- D50 ([8]; LDC): 14.32 ± 0.693 μm
- D90 ([8]; LDC): 26.43 ± 1.268 μm
- Volume Mean D[4,3] ([8]; LDC): 15.79 ± 0.755 μm
- CV ([8]; LDC): 51.07 ± 0.937%
- Span ([8]; LDC): 1.360 ± 0.028
- StDev ([8]; CXF): 8.565 ± 0.275 μm
- StDev ([8]; LDC): 8.066 ± 0.430 μm

Other lines, results leading:

- Span [4]: 1.78
- Mean ([4]; volume distribution): 6.978 μm
- D10 [4, 15]: 1.240 μm
- D50 [4, 15]: 6.562 μm
- D90 [4, 15]: 12.96 μm
Structure (SMILES): CN1C(C(=O)Nc2ccccn2)=C(O)c2ccccc2S1(=O)=O [Piroxicam]

- Span [5]: 0.72
- Volume Mean [5]: 45.73 μm
- D10 [5, 16]: 29.47 μm
- D50 [5, 16]: 43.76 μm
- D90 [5, 16]: 60.78 μm
Structure (SMILES): C[C@]12C=CC(=O)C=C1CC[C@@H]1[C@@H]2[C@@H](O)C[C@@]2(C)[C@H]1CC[C@]2(O)C(=O)CO [Prednisolone]
